Measured values from the supplement of paper PMC11061612.

Tests used:
SN-38 = compound: CCc1c2c(nc3ccc(O)cc13)-c1cc3c(c(=O)n1C2)COC(=O)[C@]3(O)CC [SN-38]; settings: max 0.3 µM
How it was run: (§1)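 Cancer cell lines were seeded into 1536-well plates in 7.5 μl medium (DMEM/F12 or RPMI, 10% FBS), held 24 hours at 37°C and 5% CO2, and dosed for 72 hours with final DMSO typically 0.2%. Luminescence from CellTiter-Glo 2.0, scaled between blank-well and DMSO-well means, served as viability. The single-agent IC50 was obtained from dose-response fits with a non-linear mixed effects model, each fit being a two-parameter logistic curve.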

AZD2811 = compound: CCN(CCO)CCCOc1ccc2c(Nc3cc(CC(=O)Nc4cccc(F)c4)[nH]n3)ncnc2c1 [AZD2811]; settings: max 1 µM
How it was run: as §1

Prexasertib = compound: COc1cccc(OCCCN)c1-c1cc(Nc2cnc(C#N)cn2)n[nH]1 [Prexasertib]; settings: max 1 µM
How it was run: as §1

Dasatinib = compound: CC1=C(C(=CC=C1)Cl)NC(=O)C2=CN=C(S2)NC3=CC(=NC(=N3)C)N4CCN(CC4)CCO [Dasatinib]; settings: max 2 µM
How it was run: as §1

Crizotinib = compound: C[C@@H](Oc1cc(-c2cnn(C3CCNCC3)c2)cnc1N)c1c(Cl)ccc(F)c1Cl [Crizotinib]; settings: max 10 µM
How it was run: as §1

Palbociclib = compound: CC(=O)c1c(C)c2cnc(Nc3ccc(N4CCNCC4)cn3)nc2n(C2CCCC2)c1=O [Palbociclib]; settings: max 10 µM
How it was run: as §1

AZD5153 = compound: COc1nnc2ccc(N3CCC(c4ccc(OCCN5CCN(C)C(=O)[C@H]5C)cc4)CC3)nn12 [AZD5153]; settings: max 1 µM
How it was run: as §1

AZD0156 = compound: CN(C)CCCOc1ccc(-c2ccc3ncc4c(c3c2)n(C2CCOCC2)c(=O)n4C)cn1 [AZD0156]
How it was run: as §1

Taselisib = compound: Cc1nc(-c2cn3c(n2)-c2ccc(-c4cnn(C(C)(C)C(N)=O)c4)cc2OCC3)n(C(C)C)n1 [Taselisib]; settings: max 10 µM
How it was run: as §1

Venetoclax = compound: CC1(C)CCC(CN2CCN(c3ccc(C(=O)NS(=O)(=O)c4ccc(NCC5CCOCC5)c([N+](=O)[O-])c4)c(Oc4cnc5[nH]ccc5c4)c3)CC2)=C(c2ccc(Cl)cc2)C1 [Venetoclax]; settings: max 1 µM
How it was run: as §1

Selumetinib = compound: Cn1cnc2c(F)c(Nc3ccc(Br)cc3Cl)c(C(=O)NOCCO)cc21 [Selumetinib]; settings: max 10 µM
How it was run: as §1

Gefitinib = compound: COc1cc2ncnc(Nc3ccc(F)c(Cl)c3)c2cc1OCCCN1CCOCC1 [Gefitinib]; settings: max 10 µM
How it was run: as §1

AZD1775 = compound: C=CCn1c(=O)c2cnc(Nc3ccc(N4CCN(C)CC4)cc3)nc2n1-c1cccc(C(C)(C)O)n1 [AZD1775]
How it was run: as §1

Savolitinib = compound: C[C@@H](c1ccc2nccn2c1)n1nnc2ncc(-c3cnn(C)c3)nc21 [Savolitinib]; settings: max 1 µM
How it was run: as §1

Doxorubicin = compound: COc1cccc2c1C(=O)c1c(O)c3c(c(O)c1C2=O)C[C@@](O)(C(=O)CO)C[C@@H]3O[C@H]1C[C@H](N)[C@H](O)[C@H](C)O1 [Doxorubicin]; settings: max 1 µM
How it was run: as §1

Olaparib = compound: O=C(c1cc(Cc2n[nH]c(=O)c3ccccc23)ccc1F)N1CCN(C(=O)C2CC2)CC1 [Olaparib]; settings: max 10 µM
How it was run: as §1

AZD5991 = compound: Cc1c2c(nn1C)CSCc1cc(n(C)n1)CSc1cc(c3ccccc3c1)OCCCc1c(C(=O)O)n(C)c3c-2c(Cl)ccc13 [AZD5991]; settings: max 1 µM
How it was run: as §1

AZD1390 = compound: CC(C)n1c(=O)n(C)c2cnc3cc(F)c(-c4ccc(OCCCN5CCCCC5)nc4)cc3c21 [AZD1390]; settings: max 0.3 µM
How it was run: as §1

Trametinib = compound: CC(=O)Nc1cccc(-n2c(=O)n(C3CC3)c(=O)c3c(Nc4ccc(I)cc4F)n(C)c(=O)c(C)c32)c1 [Trametinib]; settings: max 1 µM
How it was run: as §1

Lapatinib = compound: CS(=O)(=O)CCNCc1ccc(-c2ccc3ncnc(Nc4ccc(OCc5cccc(F)c5)c(Cl)c4)c3c2)o1 [Lapatinib]; settings: max 10 µM
How it was run: as §1

SG3199 = compound: CC1=CN2[C@@H](C1)C=NC3=CC(=C(C=C3C2=O)OC)OCCCCCOC4=C(C=C5C(=C4)N=C[C@@H]6CC(=CN6C5=O)C)OC [SG3199]; settings: max 0.001 µM
How it was run: as §1

AZD8186 = compound: C[C@@H](Nc1cc(F)cc(F)c1)c1cc(C(=O)N(C)C)cc2c(=O)cc(N3CCOCC3)oc12 [AZD8186]; settings: max 3 µM
How it was run: as §1

AZD4320 = compound: CN(CC[C@H](CSC1=CC=CC=C1)NC2=C(C=C(C=C2)S(=O)(=O)NC(=O)C3=CC=C(C=C3)N4CCC(CC4)[C@H](C5=CC=CC=C5C6=CC=C(C=C6)Cl)O)S(=O)(=O)C(F)(F)F)CCO [AZD4320]; settings: max 1 µM
How it was run: as §1

Capivasertib = compound: C1CN(CCC1(C(=O)N[C@@H](CCO)C2=CC=C(C=C2)Cl)N)C3=NC=NC4=C3C=CN4 [Capivasertib]
How it was run: as §1

AZD6738 = compound: C[C@@H]1COCCN1C2=NC(=NC(=C2)C3(CC3)[S@](=N)(=O)C)C4=C5C=CNC5=NC=C4 [AZD6738]; settings: max 10 µM
How it was run: as §1

AZD7648 = compound: Cc1cc2ncnn2cc1Nc1ncc2c(n1)n(C1CCOCC1)c(=O)n2C [AZD7648]; settings: max 10 µM
How it was run: as §1

Alisertib = compound: COc1cc(Nc2ncc3c(n2)-c2ccc(Cl)cc2C(c2c(F)cccc2OC)=NC3)ccc1C(=O)O [Alisertib]; settings: max 10 µM
How it was run: as §1

Row | Cell Line | IC50, cell viability 72 h (SN-38) | IC50, cell viability 72 h (AZD2811) | IC50, cell viability 72 h (Prexasertib) | IC50, cell viability 72 h (Dasatinib) | IC50, cell viability 72 h (Crizotinib) | IC50, cell viability 72 h (Palbociclib) | IC50, cell viability 72 h (AZD5153) | IC50, cell viability 72 h (AZD0156; max 3 µM) | IC50, cell viability 72 h (Taselisib) | IC50, cell viability 72 h (Venetoclax) | IC50, cell viability 72 h (Selumetinib) | IC50, cell viability 72 h (Gefitinib) | IC50, cell viability 72 h (AZD1775; max 3 µM) | IC50, cell viability 72 h (Savolitinib) | IC50, cell viability 72 h (Doxorubicin) | IC50, cell viability 72 h (Olaparib) | IC50, cell viability 72 h (AZD5991) | IC50, cell viability 72 h (AZD1390) | IC50, cell viability 72 h (Trametinib) | IC50, cell viability 72 h (Lapatinib) | IC50, cell viability 72 h (SG3199) | IC50, cell viability 72 h (AZD8186) | IC50, cell viability 72 h (AZD4320) | IC50, cell viability 72 h (Capivasertib; max 10 µM) | IC50, cell viability 72 h (AZD6738) | IC50, cell viability 72 h (AZD7648) | IC50, cell viability 72 h (Alisertib) | IC50, cell viability 72 h (Capivasertib; max 3 µM) | IC50, cell viability 72 h (AZD0156; max 1 µM) | IC50, cell viability 72 h (AZD1775; max 1 µM)
1 | HCC2157 (Breast Carcinoma) | 14.1 nM | 182 nM | 22.5 nM | > 2000 nM | 4090 nM | > 10000 nM | 12.6 nM | > 3000 nM | 222 nM | > 1000 nM | > 10000 nM | 4410 nM | > 3000 nM | > 1000 nM | > 1000 nM | > 10000 nM | 24.4 nM | > 300 nM | > 1000 nM | 60.2 nM | > 1 nM | 667 nM | 72.1 nM | 307 nM | 2490 nM | > 10000 nM | 454 nM | – | – | –
2 | HPAC (Pancreatic Carcinoma) | > 300 nM | > 1000 nM | 81.6 nM | > 2000 nM | 6650 nM | > 10000 nM | 579 nM | > 3000 nM | 2380 nM | > 1000 nM | 3160 nM | > 10000 nM | 1500 nM | > 1000 nM | > 1000 nM | > 10000 nM | > 1000 nM | > 300 nM | 22.7 nM | > 10000 nM | > 1 nM | > 3000 nM | > 1000 nM | > 10000 nM | > 10000 nM | > 10000 nM | 3960 nM | – | – | –
3 | IGR-1 (Melanoma) | > 300 nM | > 1000 nM | 617 nM | > 2000 nM | 6250 nM | > 10000 nM | > 1000 nM | > 3000 nM | > 10000 nM | > 1000 nM | > 10000 nM | > 10000 nM | > 3000 nM | > 1000 nM | > 1000 nM | > 10000 nM | > 1000 nM | > 300 nM | > 1000 nM | 8830 nM | > 1 nM | > 3000 nM | > 1000 nM | > 10000 nM | > 10000 nM | > 10000 nM | > 10000 nM | – | – | –
4 | J82 (Bladder Carcinoma) | 80.5 nM | > 1000 nM | > 1000 nM | > 2000 nM | > 10000 nM | > 10000 nM | > 1000 nM | > 3000 nM | > 10000 nM | > 1000 nM | > 10000 nM | > 10000 nM | > 3000 nM | > 1000 nM | > 1000 nM | > 10000 nM | > 1000 nM | > 300 nM | > 1000 nM | > 10000 nM | > 1 nM | > 3000 nM | > 1000 nM | > 10000 nM | > 10000 nM | > 10000 nM | > 10000 nM | – | – | –
5 | JiyoyeP-2003 (Burkitt's Lymphoma) | 14.1 nM | > 1000 nM | 11.7 nM | 1020 nM | > 10000 nM | 4700 nM | 49.2 nM | > 3000 nM | 9670 nM | > 1000 nM | > 10000 nM | > 10000 nM | 597 nM | > 1000 nM | 172 nM | > 10000 nM | 814 nM | > 300 nM | > 1000 nM | > 10000 nM | > 1 nM | > 3000 nM | 403 nM | 2320 nM | 1370 nM | > 10000 nM | 271 nM | – | – | –
6 | LU-99A (Non-Small Cell Lung Carcinoma) | 39.7 nM | > 1000 nM | 77.1 nM | 1510 nM | > 10000 nM | > 10000 nM | > 1000 nM | > 3000 nM | 3080 nM | > 1000 nM | > 10000 nM | > 10000 nM | > 3000 nM | > 1000 nM | 577 nM | > 10000 nM | > 1000 nM | > 300 nM | 163 nM | > 10000 nM | > 1 nM | > 3000 nM | > 1000 nM | > 10000 nM | > 10000 nM | > 10000 nM | > 10000 nM | – | – | –
7 | NB(TU)1-10 (Neuroblastoma) | 17 nM | > 1000 nM | 8.06 nM | – | – | – | – | > 3000 nM | – | – | – | – | 835 nM | – | 468 nM | > 10000 nM | – | – | – | – | > 1 nM | – | – | – | 6880 nM | > 10000 nM | – | > 3000 nM | – | –
8 | NCI-H1694 (Small Cell Lung Carcinoma) | 3.95 nM | > 1000 nM | 66.9 nM | > 2000 nM | > 10000 nM | > 10000 nM | > 1000 nM | – | > 10000 nM | > 1000 nM | > 10000 nM | > 10000 nM | – | > 1000 nM | 727 nM | > 10000 nM | 109 nM | > 300 nM | > 1000 nM | > 10000 nM | > 1 nM | > 3000 nM | 462 nM | > 10000 nM | 9060 nM | > 10000 nM | > 10000 nM | – | > 1000 nM | > 1000 nM
